# According to patent US5756348A (Synaptic Pharmaceutical Corporation, priority 1994, dated 1998):
# What was measured:
# [1] = target: T1, glycine transporter encoded by rB20a (Rattus norvegicus, UniProt P28572); assay: Competition for [3H]glycine uptake by COS-7 cells transfected with rB20a; format: cell-based; conditions: for inhibition at 1000 µM / inhibition at 10 µM / inhibition at 100 µM: COS-7, 10 min, read-out: % displacement of specific [3H]glycine uptake; for % displacement of specific [3H]glycine uptake: 50 nM [3H]glycine, 10 minutes, 37° C.
# T1 construct: expressed in transfected cells
# T1 sequence (P28572 1-638): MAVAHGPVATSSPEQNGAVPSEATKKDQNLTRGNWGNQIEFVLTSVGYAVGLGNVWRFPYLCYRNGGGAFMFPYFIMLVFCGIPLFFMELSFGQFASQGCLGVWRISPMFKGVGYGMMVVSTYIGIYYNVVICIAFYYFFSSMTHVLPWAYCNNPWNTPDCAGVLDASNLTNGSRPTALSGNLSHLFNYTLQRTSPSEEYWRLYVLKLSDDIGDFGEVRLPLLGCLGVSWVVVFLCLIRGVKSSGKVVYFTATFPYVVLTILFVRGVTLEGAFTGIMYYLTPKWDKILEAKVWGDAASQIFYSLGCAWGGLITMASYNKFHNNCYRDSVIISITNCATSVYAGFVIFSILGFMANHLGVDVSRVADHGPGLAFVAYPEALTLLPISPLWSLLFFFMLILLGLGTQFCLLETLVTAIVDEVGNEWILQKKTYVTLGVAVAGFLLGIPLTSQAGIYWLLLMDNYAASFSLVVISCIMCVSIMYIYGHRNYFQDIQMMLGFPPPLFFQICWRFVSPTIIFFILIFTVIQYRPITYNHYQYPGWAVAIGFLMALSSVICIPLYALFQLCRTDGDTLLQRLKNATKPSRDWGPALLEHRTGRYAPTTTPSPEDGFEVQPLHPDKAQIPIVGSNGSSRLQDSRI
# Method: (§1) These two clones were constructed into a full-length clone (designated rB20a) by ligation at their internal Nco I sites and then cloned into the eukaryotic expression vector pSVL (Pharmacia LXB Biotechnology, Piscataway, N.J.). Transient transfection of COS cells was carried out using DEAE-dextran with DMSO according to the method of Lopata et al. (1984) with minor modifications. COS cells were grown in six-well plates (37° C.,5%CO2) in high glucose Dulbecco's modified Eagle medium supplemented with 10% bovine calf serum, 100 U/ml penicillin G, and 100 μg/ml streptomycin sulfate. Cells were routinely used two days after transfection for transport studies.
# (§2) Plates were incubated at 37° C. for 10 or 20 minutes, then washed rapidly 3× with HBS. Cells were solubilized with 0.05% sodium deoxycholate/0.1N NaOH (1 ml/well), 0.5 ml aliquots were removed, neutralized with 1N HCl, and radioactivity was determined by scintillation counting. Protein was quantified in an aliquot of the solubilized cells with the Bradford Reagent (Biorad, Richmond, Calif.), according to the manufacturer's directions.
# Nonspecific uptake was determined with 1 mM
# [2] = test system: high-affinity transporter present in glial cell cultures; conditions: read-out: Km for glycine; cited from earlier work
# [3] = test system: high-affinity transporter in rat brain synaptosomes; conditions: read-out: Km for glycine; cited from earlier work
# [4] = target: T1, glycine transporter encoded by rB20a; assay: Transport of radiolabeled substrates by COS cells transiently transfected with rB20a; format: cell-based; conditions: data not shown
# Method: as §1, §2
Molecule,inhibition at 1000 µM [1] [%],effect of rB20a expression on uptake of the radiolabeled substrate [4],further results
NCC(=O)O [glycine],100,–,Km [2]: 95 µM; Km [3]: 50 µM
N[C@@H](CCC(=O)O)C(=O)O [L-glutamate],0,–,–
C[C@H](N)C(=O)O [L-alanine],2,–,–
N[C@@H](Cc1ccc(O)cc1)C(=O)O [[^3 H]tyrosine],–,did not significantly alter,–
"NCCCC(=O)O [GABA, gamma-aminobutyric acid]",0,–,–
NC[C@H](O)c1ccc(O)c(O)c1 [(-)-norepinephrine],0,–,–
"CNCC(=O)O [sarcosine, N-methylglycine]",100,–,inhibition at 10 µM [1]: 23%; inhibition at 100 µM [1]: 64%; IC50 ([1]; estimated from inhibition at three concentrations): ~50 µM
NCCc1ccc(O)c(O)c1 [[^3 H]dopamine],–,did not significantly alter,–
[3H][C@](O)(CN)c1ccc(O)c(O)c1 [[^3 H]norepinephrine],–,did not significantly alter,–
^3 H]glutamate,–,did not significantly alter,–
N[C@@H](CO)C(=O)O [L-serine],4,–,"% displacement of specific [3H]glycine uptake ([1]; inhibitor 1 mM): Neither α-(methylamino) isobutyric acid (1 mM), a substrate for system A, nor L-serine (1 mM), a substrate for system ASC, significantly competed"
NCCc1ccc(O)c(O)c1 [dopamine],0,–,–
NCCc1cnc[nH]1 [[^3 H]histamine],–,did not significantly alter,–
NCCCC(=O)O [[^3 H]GABA],–,did not significantly alter,–
COC(=O)CN [glycine methyl ester],42,–,inhibition at 10 µM [1]: 0%; inhibition at 100 µM [1]: 0%; % displacement of specific [3H]glycine uptake ([1]; inhibitor 10 μM): no inhibition; % displacement of specific [3H]glycine uptake ([1]; inhibitor 100 μM): no inhibition
CNC(C)(C)C(=O)O [α-(methylamino)isobutyric acid],3,–,"% displacement of specific [3H]glycine uptake ([1]; inhibitor 1 mM): Neither α-(methylamino) isobutyric acid (1 mM), a substrate for system A, nor L-serine (1 mM), a substrate for system ASC, significantly competed"
NCCc1c[nH]cn1 [histamine],0,–,–
NCCc1c[nH]c2ccc(O)cc12 [[^3 H]5-HT],–,did not significantly alter,–
CCOC(=O)CN [glycine ethyl ester],32,–,inhibition at 10 µM [1]: 0%; inhibition at 100 µM [1]: 0%; % displacement of specific [3H]glycine uptake ([1]; inhibitor 10 μM): no inhibition; % displacement of specific [3H]glycine uptake ([1]; inhibitor 100 μM): no inhibition
